ChEMBL document CHEMBL1201862, “PubChem BioAssay data set” (2004)
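48-hour exposure; five concentrations; linearly interpolated endpoints. The concentration for 50% growth inhibition is given as GI50.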 Calls of active or inactive are those of the source. No stated cut-off is given here; in the data, active = GI50 up to about 1.1 µM and inactive = higher.

How the values were obtained:
Test in all cases: NCI anticancer screen, dose series, 48 h
[1] = system: UACC-257
[2] = system: A549
[3] = system: HOP-92
[4] = system: SK-MEL-28
[5] = system: NCI-H460
[6] = system: MDA-MB-435
[7] = system: HOP-62
[8] = system: SR
[9] = system: CCRF-CEM
[10] = system: SW-620
[11] = system: RXF 393
[12] = system: OVCAR-5
[13] = system: MOLT-4
[14] = system: OVCAR-3
[15] = system: UO-31
[16] = system: NCI-H226
[17] = system: HT-29
[18] = system: 786-0
[19] = system: RPMI-8226

Structure (SMILES)	GI50 [1]	GI50 [2]	GI50 [3]	GI50 [4]	GI50 [5]	GI50 [6]	GI50 [7]	GI50 [8]	GI50 [9]	GI50 [10]	GI50 [11]	GI50 [12]	GI50 [13]	GI50 [14]	GI50 [15]	GI50 [16]	GI50 [17]	GI50 [18]	GI50 [19]
CC1(C)CCC2=C(O1)/C(=N\Nc1ccc(S(N)(=O)=O)cc1)c1ccccc1C2=O	9.55 µM (inactive)	14.6 µM (inactive)	12.4 µM (inactive)	18.7 µM (inactive)	12 µM (inactive)	10.7 µM (inactive)	7.8 µM (inactive)	5.61 µM (inactive)	11.3 µM (inactive)	20.7 µM (inactive)	5.37 µM (inactive)	18.1 µM (inactive)	27.4 µM (inactive)	16.7 µM (inactive)	18.2 µM (inactive)	4.99 µM (inactive)	14.7 µM (inactive)	7.5 µM (inactive)	27.6 µM (inactive)
CC(=O)NC1C(OCc2ccccc2)OC(CO)C(O)C1OCC(=O)NC(C)C(=O)NC(CCC(=O)NCCCCNc1ccc([N+](=O)[O-])c2[nH]c3ccccc3c(=O)c12)C(N)=O (stereo not given)	–	50.1 µM (inactive)	> 100 µM (inactive)	> 100 µM (inactive)	68.5 µM (inactive)	> 100 µM (inactive)	> 100 µM (inactive)	2.87 µM (inactive)	–	> 100 µM (inactive)	–	> 100 µM (inactive)	–	> 100 µM (inactive)	> 100 µM (inactive)	66.1 µM (inactive)	69.3 µM (inactive)	42.9 µM (inactive)	–
CN(C(=O)Cc1cc(Cl)c(Cl)cc1N=C=S)[C@H]1CCCC[C@@H]1N1CCCC1	14.6 µM (inactive)	15.4 µM (inactive)	9.42 µM (inactive)	1.39 µM (inactive)	7.36 µM (inactive)	6.49 µM (inactive)	14.2 µM (inactive)	1.64 µM (inactive)	2.07 µM (inactive)	5.47 µM (inactive)	4.45 µM (inactive)	16.9 µM (inactive)	3 µM (inactive)	15.6 µM (inactive)	15.5 µM (inactive)	–	5.94 µM (inactive)	12.7 µM (inactive)	7.96 µM (inactive)
COC(=O)C1CCC(=O)N1C(c1ccc2c(c1)OCO2)c1ccc2c(c1)OCO2 (stereo not given)	> 100 µM (inactive)	> 100 µM (inactive)	> 100 µM (inactive)	> 100 µM (inactive)	> 100 µM (inactive)	> 100 µM (inactive)	> 100 µM (inactive)	> 100 µM (inactive)	> 100 µM (inactive)	> 100 µM (inactive)	–	> 100 µM (inactive)	> 100 µM (inactive)	> 100 µM (inactive)	51.9 µM (inactive)	> 100 µM (inactive)	> 100 µM (inactive)	> 100 µM (inactive)	> 100 µM (inactive)
C#CC(O)/C=C/CCCCCCC#CC/C=C\CC#CCCCCCCCCC(O)C#C (stereo not given)	3.35 µM (inactive)	8.43 µM (inactive)	1.8 µM (inactive)	3.42 µM (inactive)	17.1 µM (inactive)	2.53 µM (inactive)	4.27 µM (inactive)	2.37 µM (inactive)	0.0836 µM (active)	3.5 µM (inactive)	14.6 µM (inactive)	12.8 µM (inactive)	0.27 µM (active)	10.1 µM (inactive)	0.667 µM (active)	15.6 µM (inactive)	2.74 µM (inactive)	2.08 µM (inactive)	–
c1ccc(C2=C(c3ccccc3)P(c3ccccc3)C2)cc1 (stereo not given)	> 100 µM (inactive)	43.4 µM (inactive)	> 100 µM (inactive)	> 100 µM (inactive)	92.3 µM (inactive)	57.4 µM (inactive)	> 100 µM (inactive)	22.8 µM (inactive)	22.5 µM (inactive)	64 µM (inactive)	> 100 µM (inactive)	> 100 µM (inactive)	22.1 µM (inactive)	78.7 µM (inactive)	–	53.2 µM (inactive)	> 100 µM (inactive)	> 100 µM (inactive)	–
CC(=O)Nc1ccccc1NC1CC(C)N(c2ccccc2)N1C(C)=O (stereo not given)	> 10 µM (inactive)	> 10 µM (inactive)	> 10 µM (inactive)	> 10 µM (inactive)	–	> 10 µM (inactive)	> 10 µM (inactive)	> 10 µM (inactive)	> 10 µM (inactive)	> 10 µM (inactive)	> 10 µM (inactive)	–	> 10 µM (inactive)	–	–	–	> 10 µM (inactive)	> 10 µM (inactive)	> 10 µM (inactive)
CC(=O)Nn1c(=S)[nH]c2ccccc21	> 100 µM (inactive)	> 100 µM (inactive)	> 100 µM (inactive)	> 100 µM (inactive)	> 100 µM (inactive)	> 100 µM (inactive)	> 100 µM (inactive)	> 100 µM (inactive)	> 100 µM (inactive)	> 100 µM (inactive)	> 100 µM (inactive)	> 100 µM (inactive)	> 100 µM (inactive)	–	> 100 µM (inactive)	> 100 µM (inactive)	> 100 µM (inactive)	> 100 µM (inactive)	> 100 µM (inactive)
COc1c(CC=C(C)C)c(O)c(C(CC(C)C)c2c(O)c(C(C)=O)c(O)c3c2OC(C(C)(C)O)C3)c(O)c1C(C)=O (stereo not given) [ACROFOLIONE A]	3.2 µM (inactive)	7.96 µM (inactive)	1.85 µM (inactive)	9.18 µM (inactive)	4.13 µM (inactive)	4.86 µM (inactive)	–	2.82 µM (inactive)	5.36 µM (inactive)	6.25 µM (inactive)	2.88 µM (inactive)	5.38 µM (inactive)	3.4 µM (inactive)	5.42 µM (inactive)	4.16 µM (inactive)	5.69 µM (inactive)	4.71 µM (inactive)	4.89 µM (inactive)	–
Clc1cc2ncn(C3CCCO3)c2cc1Cl (stereo not given)	> 100 µM (inactive)	75.9 µM (inactive)	98.9 µM (inactive)	> 100 µM (inactive)	–	> 100 µM (inactive)	> 100 µM (inactive)	48.3 µM (inactive)	> 100 µM (inactive)	98.2 µM (inactive)	81.3 µM (inactive)	> 100 µM (inactive)	54 µM (inactive)	49.8 µM (inactive)	17.7 µM (inactive)	54.1 µM (inactive)	68.4 µM (inactive)	> 100 µM (inactive)	88.9 µM (inactive)
Cc1onc(-c2c(F)cccc2Cl)c1C(=O)N[C@@H]1C(=O)N2[C@@H]1SC(C)(C)[C@@H]2C(=O)O	> 100 µM (inactive)	> 100 µM (inactive)	> 100 µM (inactive)	> 100 µM (inactive)	> 100 µM (inactive)	> 100 µM (inactive)	> 100 µM (inactive)	> 100 µM (inactive)	–	> 100 µM (inactive)	> 100 µM (inactive)	> 100 µM (inactive)	–	> 100 µM (inactive)	24.5 µM (inactive)	> 100 µM (inactive)	> 100 µM (inactive)	> 100 µM (inactive)	> 100 µM (inactive)
CCCCNC(=O)c1cc2c(cc1Cl)Sc1nccn1S2(=O)=O	> 100 µM (inactive)	> 100 µM (inactive)	25.4 µM (inactive)	> 100 µM (inactive)	44.3 µM (inactive)	87.1 µM (inactive)	24.3 µM (inactive)	57.3 µM (inactive)	77.6 µM (inactive)	> 100 µM (inactive)	95.9 µM (inactive)	> 100 µM (inactive)	79.6 µM (inactive)	34 µM (inactive)	> 100 µM (inactive)	–	> 100 µM (inactive)	55.6 µM (inactive)	> 100 µM (inactive)
O=C(CN1CCCC1)Nc1ccc2sc3ccccc3c(=O)c2n1	> 10 µM (inactive)	16.6 µM (inactive)	27.3 µM (inactive)	19.3 µM (inactive)	22 µM (inactive)	14.7 µM (inactive)	16.9 µM (inactive)	24.9 µM (inactive)	10.5 µM (inactive)	4.97 µM (inactive)	–	24.4 µM (inactive)	1.91 µM (inactive)	42.9 µM (inactive)	14.2 µM (inactive)	–	34 µM (inactive)	14.9 µM (inactive)	21.3 µM (inactive)
CCC(C#N)(c1ccccc1)N(CCc1ccccc1)C(=O)c1ccccc1 (stereo not given)	> 100 µM (inactive)	77.1 µM (inactive)	12.6 µM (inactive)	42.6 µM (inactive)	–	> 100 µM (inactive)	15.9 µM (inactive)	> 100 µM (inactive)	> 100 µM (inactive)	> 100 µM (inactive)	24.5 µM (inactive)	> 100 µM (inactive)	> 100 µM (inactive)	85.9 µM (inactive)	64.3 µM (inactive)	18.5 µM (inactive)	> 100 µM (inactive)	13.3 µM (inactive)	> 100 µM (inactive)
O=c1c2c([N+](=O)[O-])cccc2nc2[nH]c3ccccc3n12	> 75 µM (inactive)	40.3 µM (inactive)	19.8 µM (inactive)	> 75 µM (inactive)	20.9 µM (inactive)	> 75 µM (inactive)	70.8 µM (inactive)	54.2 µM (inactive)	> 75 µM (inactive)	> 75 µM (inactive)	13.8 µM (inactive)	> 75 µM (inactive)	> 75 µM (inactive)	20.7 µM (inactive)	–	22.3 µM (inactive)	63.2 µM (inactive)	29.1 µM (inactive)	64.1 µM (inactive)
Cc1cn([C@H]2C=C[C@@H](CO)O2)c(=O)[nH]c1=O [STAVUDINE]	> 1000 µM (inactive)	> 1000 µM (inactive)	679 µM (inactive)	–	–	> 1000 µM (inactive)	> 1000 µM (inactive)	780 µM (inactive)	469 µM (inactive)	418 µM (inactive)	–	> 1000 µM (inactive)	> 1000 µM (inactive)	> 1000 µM (inactive)	490 µM (inactive)	> 1000 µM (inactive)	> 1000 µM (inactive)	652 µM (inactive)	466 µM (inactive)
